For series [1], the target named is T1, 5-HT1A (Homo sapiens, UniProt P08908).
T1 sequence (P08908 1-422): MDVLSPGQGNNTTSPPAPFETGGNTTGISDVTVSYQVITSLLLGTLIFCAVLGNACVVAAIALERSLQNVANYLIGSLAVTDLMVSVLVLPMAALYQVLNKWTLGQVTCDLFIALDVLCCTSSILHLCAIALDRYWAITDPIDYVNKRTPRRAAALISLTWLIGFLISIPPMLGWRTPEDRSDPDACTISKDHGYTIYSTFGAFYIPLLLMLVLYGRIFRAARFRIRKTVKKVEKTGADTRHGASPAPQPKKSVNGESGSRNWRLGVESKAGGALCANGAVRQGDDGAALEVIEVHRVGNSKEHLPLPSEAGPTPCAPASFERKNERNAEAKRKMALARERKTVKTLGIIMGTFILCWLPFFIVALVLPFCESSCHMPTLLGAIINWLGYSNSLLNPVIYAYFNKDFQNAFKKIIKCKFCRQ
In words: binding to 5-HT1A receptor. The text has this:
(§1) 2R,6R-hydroxynorketamine was investigated for binding to monoamine oxidases A and B, monoamine transporters, as well as a variety of 5HT receptors.

For series [2], the target named is dopamine transporter (Homo sapiens, UniProt Q01959). Kind of series: binding to dopamine transporter.
From the text: as §1

In series [3] the test system is plasma binding proteins. Kind of series: fraction unbound in 100% plasma, rat. Type of series: in vitro ADME. An excerpt:
While the risk of DDIs due to displacement from plasma binding proteins (PPBs) is relatively low, it should be considered for drugs which display a high proportion PPB (fraction unbound (fu)<1%).
The fu was investigated for 2R,6R-hydroxynorketamine using a 100% plasma from 4 test species.

Series [4] is described as follows: turbidimetric aqueous solubility. Type of series: physicochemical.
A short description of series [5]: in vitro hepatocyte stability assay, dog. Type of series: in vitro ADME. The conditions noted are these: cryopreserved hepatocytes. The protocol:
2R,6R-hydroxynorketamine was investigated using an in vitro hepatocyte stability assay, during which 2R,6R-hydroxynorketamine was incubated with cryopreserved hepatocytes from 3 test species.

Series [6] in a line: in vitro. The conditions noted are these: human.

What is called half-life is the time needed for the level to fall by half in the phase considered. Higher therefore signals slow loss. Broadly, the hepatocyte CLint is a measure of how fast metabolising enzymes remove a compound, apart from limits set by blood flow. By Papp A→B is commonly meant how fast a substance crosses the layer from the apical side. Read a high Papp A→B as fast passage. The Papp B→A is how fast a substance crosses the layer from the basolateral side. In general, efflux ratio refers to a quotient of directional permeabilities that is used to spot active efflux.

The structures appear in SMILES notation.

Sequence of dopamine transporter (Q01959 whole entry): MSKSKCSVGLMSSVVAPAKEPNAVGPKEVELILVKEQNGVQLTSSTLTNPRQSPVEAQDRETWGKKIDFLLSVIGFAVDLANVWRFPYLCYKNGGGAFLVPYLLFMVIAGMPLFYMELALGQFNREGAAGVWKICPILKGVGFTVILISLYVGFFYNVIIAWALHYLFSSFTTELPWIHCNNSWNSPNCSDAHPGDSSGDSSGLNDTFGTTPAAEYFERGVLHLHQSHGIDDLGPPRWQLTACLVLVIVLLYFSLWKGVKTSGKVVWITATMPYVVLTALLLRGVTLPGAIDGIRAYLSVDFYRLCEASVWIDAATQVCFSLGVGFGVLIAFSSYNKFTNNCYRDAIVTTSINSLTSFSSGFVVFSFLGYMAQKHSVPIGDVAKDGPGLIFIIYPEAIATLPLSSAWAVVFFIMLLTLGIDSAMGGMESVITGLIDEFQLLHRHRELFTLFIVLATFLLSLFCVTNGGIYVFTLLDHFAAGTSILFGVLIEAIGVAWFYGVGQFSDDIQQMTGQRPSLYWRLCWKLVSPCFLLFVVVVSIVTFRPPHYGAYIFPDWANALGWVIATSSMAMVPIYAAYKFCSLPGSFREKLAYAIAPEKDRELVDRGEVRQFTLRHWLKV

Regarding `N[C@@]1(c2ccccc2Cl)CCC[C@@H](O)C1=O` [2R,6R-hydroxynorketamine], the results for the “% Inhibition of Control Specific Binding” value in series [1] and in series [2] were 5% and 11%, respectively. Also, the results for the “% of Control Specific Binding” value in series [1] and in series [2] were 97.9% and 87.2%, respectively. Also, the “binding to 5HT1A receptor subtype” value in series [1] is recorded as “does not bind”. Also, the “activity at dopamine transporters” value in series [2] is listed as “nor activity at dopamine transporters”. Moreover, the “plasma protein binding (PPB), words” value in series [3] was “low PPB”. For the same compound, in series [4], the “estimated precipitation range lower bound” value was 100 µM. The “estimated precipitation range upper bound” value in series [4] was above 100 µM. For the same compound, in series [4], the “solubility” value is “high solubility”. In series [5], this compound returned a half-life of 4.9 h. For the same compound, in series [5], the hepatocyte CLint stood at 4.72 µL/min/1e6 cells. Besides, the recovery in series [6] (Caco-2, Direction = A2B Mean % Recovery, Caco-2, A2B) was 98.9%; in series [6] (Caco-2, Direction = B2A Mean % Recovery, Caco-2, B2A), 103%. For the same compound, the apical-to-basolateral permeability (Papp A→B) in series [6] (Caco-2, Direction = A2B Mean Papp, Caco-2, A2B, mean, n 2) was 457 nm/s; in series [6] (Caco-2, Direction = A2B Papp Replicate 1, Caco-2, A2B, replicate 1), 491 nm/s; in series [6] (Caco-2, Direction = A2B Papp Replicate 2, Caco-2, A2B, replicate 2) it was 423 nm/s. In addition, the Papp B→A in series [6] (Caco-2, Direction = B2A Mean Papp, Caco-2, B2A, mean, n 2) was 507 nm/s; in series [6] (Caco-2, Direction = B2A Papp Replicate 1, Caco-2, B2A, replicate 1), 528 nm/s; in series [6] (Caco-2, Direction = B2A Papp Replicate 2, Caco-2, B2A, replicate 2), 485 nm/s. The efflux ratio in series [6] (Caco-2, Efflux Ratio (Mean Papp B2A/Mean Papp A2B), Caco-2, without inhibitor) was below 2.

Source of the values: patent publication US20190380978A1, “SOLID ORAL DOSAGE FORMS OF 2R,6R-HYDROXYNORKETAMINE OR DERIVATIVES THEREOF” (priority 2016, published 2019).
